{"source": "patent US5962415A", "about": "“Compositions comprising a peptide inhibitor of nuclear protein translocation and an immunosuppressant and methods of use thereof” (Bristol-Myers Squibb Co., priority 1998, dated 1999)", "key": {"[1]": {"tested_on": "THP-1 human monocytic cells", "assay": "LPS-stimulated cytokine (TNF-α, IL-8) production in THP-1 cells", "format": "cell-based", "conditions": "5 μM or 10 μM, 2 hr preincubation, 5 hr LPS stimulation, FIG. 2", "description": "Amounts of TNF-α, IL-6, IL-8 and IL-10 were determined using the ELISA kits obtained from Genzyme following the manufacturer's instructions.\nTHP-1 control cells were harvested, washed and set up in RPMI 1640, 10% fetal calf serum, at a concentration of 2.56×10^6 cells/ml. Phosphate buffered saline (\"PBS\") or one of the two respective polypeptides SV40MEM or SV40 (a peptide having only the SV40 large T antigen NLS sequence) were added to the cells at a concentration of 10 μM or 20 μM. The cells were then plated into a 96-well plate with 0.1 ml/well. The plate was then incubated for 2 hr at 37° C. in a 5% CO2 atmosphere. Following the initial incubation, media or a titration of LPS was added to each of the wells in a volume of 0.1 ml. Thus, the final concentrations of polypeptides were 5 μM or 10 μM. Following 5 hr of LPS stimulation, supernatants were taken and TNF-α and IL-8 levels were determined by ELISA. In addition, cells treated with PBS or polypeptides, but not incubated with LPS, were removed at the time of supernatant removal to determine the viability of the cells following 7 hr of contact with the polypeptides.\nThis experiment was conducted to compare the inhibitory effect of the SV40MEM polypeptide and other inhibitory polypeptides on LPS induction of cytokine production. THP-1 control cells (ATCC 9/95 stock) were harvested, washed and set up in RPMI 1640, 10% fetal calf serum as described in Example 2. The cells were incubated for 2 hr with PBS or (1) the FGF signal sequence, (2) a polypeptide having the FGF signal sequence and the NLS of NF-κB p50 on the carboxy terminus of the signal sequence, (3) the SV40MEM polypeptide comprised of L-amino acids, or (4) the SV40MEM polypeptide comprised of D-amino acids at a final concentration of 5 μM. The cells were then plated into a 96-well plate with 0.1 ml/well. The plate was then incubated for 2 hr at 37° C. in a 5% CO2 atmosphere. Following the initial incubation, media or a titration of LPS was added to each of the wells in a volume of 0.01 ml/well. Following 5 hr of LPS stimulation, supernatants were taken and TNF-α levels were determined by ELISA."}, "HIVLAI in Jurkat cells": {"tested_on": "HIVLAI in Jurkat cells", "assay": "Nuclear translocation of HIV genome in Jurkat cells infected with HIVLAI (gag and 2-LTR circle PCR)", "format": "cell-based, HIV-1", "conditions": "SV40MEM 0.1 and 1.0 μM; NF-κBMEM 10 μM; 24 hr, FIG. 8B", "description": "HIV-1 M1 p24 levels were assayed using the procedures described in Smithgall et al (1995) AIDS Res. and Human Retrovirus 11:885. Proviral DNA content (gag) was measured using polymerase chain reaction analysis as described in Smithgall et al. (1995), supra.\n2-LTR circles, a strictly nuclear form of HIV-1 DNA the expression of which indicates nuclear localization of the viral genome, was measured by as described in Bukrinsky et al (1991) Science 254:423.\nJurkat cells were incubated with the SV40MEM polypeptide for 3 hr with HIVLAI for 1-2 hr. The virus was washed out and the cultures supplemented with the appropriate inhibitor (SV40MEM, 0.1,μM and 1.0 μM; NF-κBMEM, 10 μM). After 24 hr, the cells were collected, lysed and evaluated for HIV-1 DNA by polymerase chain reaction analysis of gag sequences (see FIG. 8A) and 2-LTR circles (see FIG. 8B)."}, "Jurkat T-cells": {"tested_on": "Jurkat T-cells", "assay": "Apoptosis in anti-CD3-treated Jurkat T-cells", "format": "cell-based, human", "description": "A 24-hr incubation of Jurkat T-cells with SV40MEM and anti-CD3, caused greater than 85% of the cells to apoptose."}}, "data": [{"sequence": "PKKKRKVAAVALLPAVLLALLAPKKKRKVC [SV40MEM, FGF signal peptide hydrophobic region flanked by SV40 large T antigen NLS]", "values": [{"measurement": "TNF-α production", "setting": "[1]", "result": "inhibited TNF-α production in a dose-dependent manner"}, {"measurement": "translocation of the viral genome into the nucleus (2-LTR circles)", "setting": "HIVLAI in Jurkat cells", "result": "inhibited translocation of the viral genome into the nucleus"}, {"measurement": "cells undergoing apoptosis", "setting": "Jurkat T-cells; 24-hr incubation with SV40MEM and anti-CD3", "result": "greater than 85%"}, {"measurement": "apoptosis", "setting": "Jurkat T-cells; SV40MEM alone, without anti-CD3", "result": "Neither SV40MEM nor anti-CD3 alone caused significant apoptosis"}]}]}
